According to paper PMC4142842, “Synthesis of isoprenoid bisphosphonate ethers through C–P bond formations: Potential inhibitors of geranylgeranyl diphosphate synthase” (Beilstein Journal of Organic Chemistry, 2014):
Where two headings read alike, the source gives them in different places.

How the values were obtained:
K562 cells = system: K562 cells; parameters: method as in PMID 16517172; settings: micromolar DGBP; cited from earlier work
[1] = biological target: T1, farnesyl diphosphate synthase (FDPS) (Homo sapiens, UniProt P14324); parameters: method as in PMID 17208200; settings: earlier enzyme assays; cited from earlier work
T1 construct: gift of Dr. James E. Dunford (not a commercial vendor)
T1 sequence (P14324 1-419): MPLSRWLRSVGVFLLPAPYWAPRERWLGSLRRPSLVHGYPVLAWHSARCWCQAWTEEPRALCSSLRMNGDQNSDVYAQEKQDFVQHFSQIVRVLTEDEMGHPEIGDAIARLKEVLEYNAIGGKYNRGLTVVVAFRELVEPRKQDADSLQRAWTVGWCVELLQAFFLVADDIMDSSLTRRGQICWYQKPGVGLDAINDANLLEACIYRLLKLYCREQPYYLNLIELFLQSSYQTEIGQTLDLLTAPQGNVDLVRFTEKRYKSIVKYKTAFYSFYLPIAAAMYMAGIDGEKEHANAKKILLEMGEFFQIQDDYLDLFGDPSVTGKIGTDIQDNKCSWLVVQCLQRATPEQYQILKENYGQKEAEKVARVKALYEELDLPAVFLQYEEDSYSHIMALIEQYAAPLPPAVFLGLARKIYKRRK

[2] = biological target: T1, farnesyl diphosphate synthase (FDPS); test: FDPS enzyme assay (14C-IPP incorporation, GPP substrate); type: biochemical; settings: for IC50: 10 µM GPP, 10 min preincubation
[3] = biological target: T2, geranylgeranyl diphosphate synthase (GGDPS) (Homo sapiens, UniProt O95749); test: GGDPS enzyme assay (14C-IPP incorporation, FPP substrate); type: biochemical; settings: for IC50 / activity against GGDPS (in words): enzyme assay; for IC50: 10 µM FPP, 10 min preincubation
T2 construct: gift of Dr. James E. Dunford (not a commercial vendor)
T2 sequence (O95749 1-300): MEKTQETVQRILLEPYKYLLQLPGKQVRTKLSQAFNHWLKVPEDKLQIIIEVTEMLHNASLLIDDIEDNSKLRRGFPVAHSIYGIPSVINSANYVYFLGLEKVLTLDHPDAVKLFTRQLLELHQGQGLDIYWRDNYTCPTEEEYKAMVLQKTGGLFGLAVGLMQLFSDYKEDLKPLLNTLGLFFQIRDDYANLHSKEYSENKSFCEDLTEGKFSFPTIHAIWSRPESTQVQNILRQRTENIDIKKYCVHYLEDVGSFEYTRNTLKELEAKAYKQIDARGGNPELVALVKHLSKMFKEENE

[4] = biological target: T2, geranylgeranyl diphosphate synthase (GGDPS); settings: previously reported limited activity; cited from earlier work

| Structure (SMILES) | IC50 [2] [nM] | IC50 [3] [nM] | activity against FDPS (in words) [2] | further results |
| --- | --- | --- | --- | --- |
| CC(C)=CCC/C(C)=C/CC(C/C=C(\C)CCC=C(C)C)(P(=O)(O)O)P(=O)(O)O [Compound 5, digeranyl bisphosphonate] | > 10000 |  |  | Rap1a geranylgeranylation (Western blot) (K562 cells): only partially modified; IC50 [1]: > 10000 nM |
| CC(C)=CCC/C(C)=C/COC(C/C=C(\C)CCC=C(C)C)(P(=O)(O)O)P(=O)(O)O [Compound 6] | > 10000 | 408 |  |  |
| CC(C)=CCC/C(C)=C/COC(P(=O)(O)O)P(=O)(O)O [Compound 11] | > 10000 | 238 |  |  |
| CC(C)=CCOC(P(=O)(O)O)P(=O)(O)O [Compound 14] |  |  | little or no activity | activity against GGDPS (in words) [3]: little or no activity |
| CC(C)=CCC/C(C)=C/CC(OCC=C(C)C)(P(=O)(O)O)P(=O)(O)O [Compound 16] | 830 | 684 |  |  |
| CC(C)=CCOC(CC=C(C)C)(P(=O)(O)O)P(=O)(O)O [Compound 18] | 5260 | 4750 | little or no activity | activity against GGDPS (in words) [3]: little or no activity |
| CC(C)=CCC/C(C)=C/COC(CC=C(C)C)(P(=O)(O)O)P(=O)(O)O [Compound 20] | > 10000 | 274 |  |  |
| CC(C)=CCC/C(C)=C/CC(OCC[C@@H](C)CCC=C(C)C)(P(=O)([O-])[O-])P(=O)([O-])[O-].[Na+].[Na+].[Na+].[Na+] [Compound 24] | > 10000 | 82 | no activity | fold more potent than the DGBP control (5), GGDPS ([3]; ratio of GGDPS IC50 values): ~ 2.6 fold |
| CC(C)=CCCC(C)=CCC(P(=O)(O)O)P(=O)(O)O [geranyl bisphosphonate] |  |  |  | activity previously reported (GGDPS inhibition) [4]: 10 µM |
